Results published in patent US20120258944A1, “ANTIOXIDANTS FOR USE IN THERAPY” (priority 2009, published 2012).

Legend:
[1] = test system: human neutrophils and PBMCs, rat neutrophils and PBMCs, human PLB-985 cell line; test: Extracellular ROS, isoluminol luminescence, PMA or fMLF stimulated cells; type: cell-based; details: PMA or fMLF 30 ng/ml; compounds 120 to 0 microM; FIG. 1-4, 9-12, 14-17
Experimental: Validation was performed by stimulating cells with PMA and fMLF. When treated with the antioxidants, altered level of ROS production from the cells was measured using luminometry. Both intracellular and extracellular effect on ROS on the cells was analyzed using isoluminol (extracellular) and luminol (intracellular when co-administered with SOD and catalase) (Dahlgren et al. “Respiratory burst in human neutrophils”, Journal of Immunological Methods 232 1999; 3-14).
The isoluminol reagent buffer was made of HBSS buffer (with Ca^2+), Isoluminol and HRP.
1) Add 25 microL of antioxidants to assay plate to get proper concentrations in a total reaction volume of 100 micro-L. 2) Add 25 microL of PMA (120 ng/ml) and fMLF (120 ng/ml) to assay plate to get concentration of 30 ng/ml in a total reaction volume of 100 microL. 3) Add 50 microL of cell suspension (2 million cells/ml) to each well. Immediately after addition of cell suspension initiate luminescence measurement; the reaction starts at once when the cells are added to the assay plate. Measurement points are taken at 1-minute intervals for 25 minutes. Data is presented as AUC (Area Under Curve) by a summary of all collected measurements for each well.
FIG. 1: Extracellular ROS analyzed by Isoluminol induced luminescence in human Neutrophils. ROS induced with PMA (30 ng/ml) with 200, 100 or 0 microM NAC. Concentrations of compounds 120, 60, 30 and 0 microM final concentrations.
FIG. 9: Extracellular ROS analyzed by Isoluminol induced luminescence in rat Neutrophils. ROS induced with PMA (30 ng/ml) with 200, 100 or 0 microM NAC. Concentrations of compounds 120, 60, 30 and 0 microM final concentrations.
FIG. 11: Extracellular ROS analyzed by Isoluminol induced luminescence in human PLB-985 cell line. ROS induced with PMA (30 ng/ml) with 200, 100 or 0 microM NAC. Concentrations of compounds 120, 60, 30 and 0 microM final concentrations.

PLB985 cells = test: Resazurin based in vitro toxicology assay (TOX8); type: cell-based, human; details: PLB985, 3 hours, up to 120 μM
Experimental: The viability of cells treated with the compounds was also analyzed using a Resazurin based in vitro Toxicology Assay Kit (SigmaAldrich TOX8). Resazurin systems measure the metabolic activity of living cell. Resazurin in its oxidized form (blue) is reduced (red) by living cells and the amount of dye conversion is measured fluorometrically or spectrophotometrically indicating the degree of cytotoxicity.
1) 75 micro-l of PLB985 cells (1 million cells/ml) is mixed with 25 micro-l of Compounds 1, 2, 3 and D (480, 120, 15 and 0.48 micro-M) in a 96 well plate in duplicates. 2) 10 micro-L of Resazurin solution is added to each well and the plate is incubated at 37° C. for 3 hours. 3) Spectrophotometrical analysis is performed in plate reader at 600 and 690 nm.
FIG. 18: Cell viability of compounds in human PLB-985 cell line. Concentrations of compounds 120; 60; 30; 3.75; 0.12 and […] final concentrations. Measurement that indicates cell cytotoxicity (In vitro toxicology assay, TOX-8). The bars show increased level of cytotoxicity (analysis of absorbance of 600 nm substracted with absorbance 690 nm).

[2] = ABTS radical cation assay (TEAC) in aqueous PBS buffer; details: 6.08 micro-M
Experimental: In order to investigate its aqueous phase performance, we thought that it would be interesting to determine its Trolox Equivalent Antioxidant Capacity (TEAC) (Free Rad. Biol. Med. 1999, 26, 1231-1237) which has been used to quantify the antioxidant activity of biological fluids, extracts and pure compounds. The TEAC value is defined as the concentration of Trolox which has an equivalent antioxidant potential as a 1 mM solution of the compound under investigation (Free Rad. Biol. Med. 1996, 20, 933-956).
A 2,2′-azinobis(3-ethylbenzothiazoline-6 sulphonic acid radical cation (ABTS•+) assay was used to determine relative TEAC values. To a preformed solution of ABTS•+ in PBS buffer, pH 7.4, with an absorbance slightly above 0.7 were added various amounts (3-30 microM) of organoselenium compound 1, Trolox, sodium ascorbate and N-acetylcysteine. The absorbance at 734 inn was recorded immediately after mixing and then every minute for the next 8 minutes.
Antioxidant activity as determined by the capacity of the antioxidant to decolorize the ABTS^+ radical cation was determined essentially as described in the literature (Acc. Chem. Res. 1986, 19, 194-201). […] In a typical experiment, the antioxidant (1.52 micro-L of a 3.00 mM solution in MeOH or water; final concentration=6.08 micro-M) was syringed into 0.750 mL of the ABTS^+ radical cation solution. After initial mixing, the absorbance was recorded every minute for the next eight minutes.

THP-1 cells = test: Chemiluminescence (Diogenes), ROS production in PMA stimulated THP-1 cells; type: cell-based, human
Excerpt: We investigated the capacity of the material to quench ROS produced by freshly isolated human neutrophils or THP-1 cells (human acute monocytic leukemia cell line) stimulated with PMA (Phorbol Myristate Acetate). The antioxidant capacity of selenide 1 was again compared to those of Trolox, a water soluble derivative of vitamin E, which is commonly used in biological and biochemical applications to reduce oxidative stress or damage.
The generation of oxygen free radicals over time from macrophages (THP-1) was monitored for 180 minutes in 96-well white optiplates (Greiner) using a using a TECAN reader and Diogenes chemiluminescence kit (National Diagnostics). Approximately 200 000 THP-1 cells diluted in HBSS containing different concentrations of the antioxidants 1 and Trolox were added per well to a 96 well plate together with the Diogenes reagent 20 v/% (following the manufacturers recommendations) and 40 micro-M Phorbol Myristate Acetate (PMA). Luminescence intensity was read every 6 min. The measurements were commonly performed on quadruplicate samples

[3] = test system: human umbilical vein endothelial cells (HUVEC); test: Visual evaluation of HUVECs under the microscope (dislodging from the surface); details: human, 24 h
Experimental: Cells were harvested and resuspended in supplemented medium 200 without phenol red. 50 000 cells were added in duplicates to 96-well plates. The compounds were tested on HUVECs according to the following concentrations.
The compounds were diluted in Medium 200 from the 0.1M stock solution. The toxic effects of the compounds were tested after 24 hrs, 48 hrs and 72 hrs.
By visually looking at the cells under the microscope and estimating the dislodging from the surface, the state of the cells was evaluated.

kidney slice = test: Organ model TBARS experiment (TBA-MDA assay) in kidney slices
[4] = two-phase model, N-acetylcysteine in the aqueous phase; cited from earlier work

CC1Cc2cc(O)ccc2[Se]1 (stereo not shown) [Compound 1]
antioxidative effect on extracellular ROS [1]: antioxidative effect on extra cellular ROS | cytotoxicity (PLB985 cells): no signs of cytotoxicity | TEAC value ([2]; PBS buffer pH 7.4, after 5 min): 1.6 | number of ABTS radicals quenched by each molecule of the antioxidant ([2]; PBS buffer pH 7.4, versus reference antioxidants): clearly outperformed both sodium ascorbate and Trolox | effect on ROS production in THP-1 (THP-1 cells; 1, 10 and 20 micro-M, FIG. 24): clear, dose dependent, quenching/inhibiting effect | quenching of ROS from THP-1 compared with Trolox (THP-1 cells; 20 micro-M each): considerably more effective than Trolox | concentration at which cells were affected (visual) [3]: 500 µM | potency as inhibitor of TBARS production compared with references (kidney slice): more potent inhibitors of TBARS production than Trolox and N-acetylcysteine | concentration able to inhibit 50% of the TBARS formation in the control incubation (kidney slice; re-oxygenation after Argon): sub-micromolar | Inhibited Rate of Linoleic Acid Peroxidation (Rinh) [4]: 69 µM/h
